# Measured values as given in patent US20250049765A1, “BICYCLO [3.2.0] HEPTANE BIS(AMIDE) RXFP1 AGONISTS” (BRISTOL-MYERS SQUIBB COMPANY, priority 2021, published 2025).
# Tested on: not given
# Experiment: not given
# Conditions: intravenous (IV) formulation; cited from earlier work
row,Compound,first-phase pharmacokinetic half-life
1,Serelaxin,5.4 min

# Molecular target: human RXFP1 (Homo sapiens (Human), UniProt Q9HBX9)
# Experiment: hRXFP1 HEK293 cAMP assay
# Format: cell-based
# Conditions: HEK293 cells stably expressing human RXFP1; 30 min at room temperature; HTRF cAMP
# Protocol: RXFP1 Cyclic Adenosine Monophosphate (CAMP) Assays. Human embryonic kidney cells 293 (HEK293) cells and HEK293 cells stably expressing human RXFP1, were cultured in MEM medium supplemented with 10% qualified FBS, and 300 μg/ml hygromycin (Life Technologies). Cells were dissociated and suspended in assay buffer. The assay buffer was HBSS buffer (with calcium and magnesium) containing 20 mM HEPES, 0.05% BSA, and 0.5 mM IBMX. Cells (3000 cells per well, except 1500 cell per well for HEK293 cells stably expressing human RXFP1) were added to 384-well Proxiplates (Perkin-Elmer). Cells were immediately treated with test compounds in DMSO (2% final) at final concentrations in the range of 0.010 nM to 50 μM. Cells were incubated for 30 min at room temperature. The level of intracellular cAMP was determined using the HTRF HiRange CAMP assay reagent kit (Cisbio) according to manufacturer's instructions. Solutions of cryptate conjugated anti-cAMP and d2 fluorophore-labelled cAMP were made in a supplied lysis buffer separately. Upon completion of the reaction, the cells were lysed with equal volume of the d2-cAMP solution and anti-cAMP solution. After a 1 h room temperature incubation, time-resolved fluorescence intensity was measured using the Envision (Perkin-Elmer) at 400 nm excitation and dual emission at 590 nm and 665 nm. A calibration curve was constructed with an external cAMP standard at concentrations ranging from 2.7 μM to 0.1 μM by plotting the fluorescent intensity ratio from 665 nm emission to the intensity from the 590 nm emission against cAMP concentrations. The potency and activity of a compound to […] cAMP production was then determined by fitting to a 4-parametric logistic equation from a plot of cAMP level versus compound concentrations.
# The examples disclosed below were tested in the human RXFP1 (hRXFP1) HEK293 cAMP assay described above and found to have agonist activity. Table A lists EC50 values in the hRXFP1 HEK293 cAMP assay measured for the examples.
# Sequence of human RXFP1 (Q9HBX9 whole entry): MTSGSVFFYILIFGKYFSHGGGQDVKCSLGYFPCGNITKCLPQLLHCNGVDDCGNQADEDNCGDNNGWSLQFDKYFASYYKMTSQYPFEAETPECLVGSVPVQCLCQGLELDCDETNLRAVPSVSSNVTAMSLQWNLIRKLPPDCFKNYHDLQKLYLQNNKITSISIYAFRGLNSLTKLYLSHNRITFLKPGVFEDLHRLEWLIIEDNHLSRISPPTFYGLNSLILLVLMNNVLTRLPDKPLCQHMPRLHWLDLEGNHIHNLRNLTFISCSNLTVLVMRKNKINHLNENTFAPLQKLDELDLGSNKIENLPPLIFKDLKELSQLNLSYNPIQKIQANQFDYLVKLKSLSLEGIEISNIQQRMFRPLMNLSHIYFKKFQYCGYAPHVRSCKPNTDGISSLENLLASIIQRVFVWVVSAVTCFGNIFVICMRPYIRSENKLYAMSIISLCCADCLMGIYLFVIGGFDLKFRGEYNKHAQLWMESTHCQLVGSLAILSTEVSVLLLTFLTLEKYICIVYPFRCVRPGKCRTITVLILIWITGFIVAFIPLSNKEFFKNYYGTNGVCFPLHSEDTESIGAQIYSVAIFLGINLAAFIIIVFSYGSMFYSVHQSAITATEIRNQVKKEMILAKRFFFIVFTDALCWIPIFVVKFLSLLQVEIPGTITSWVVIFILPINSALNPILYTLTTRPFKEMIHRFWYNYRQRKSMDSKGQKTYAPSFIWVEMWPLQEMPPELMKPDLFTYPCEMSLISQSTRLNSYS
row,EC50,Compound
1,916 nM,"COc1ccc(C2=NOC3CC(O)CC23)cc1C(=O)NC1C2CCCC2C1C(=O)Nc1ccc(F)c(C(F)(F)F)c1 [Example 3, (1R,5S,6R,7S)-N-(4-fluoro-3-(tri-fluoromethyl)-phenyl)-7-(5-(5-hydroxy-3a,5,6,6a-tetrahydro-4H-cyclopenta[d]isox-azol-3-yl)-2-meth-oxybenzamido)-bicyclo[3.2.0] heptane-6-carbox-amide]"
2,12 nM,"COc1ccc(-c2cc(C(OC(=O)Nc3ccccc3)C(=O)O)ccc2F)cc1C(=O)N[C@H]1[C@@H]2CCC[C@@H]2[C@H]1C(=O)Nc1ccc(F)c(C(F)(F)F)c1 (stereo partly drawn) [Example 7, 2-(6-fluoro-3′-(((1S,5R,6S,7R)-7-((4-fluoro-3-(trifluoromethyl)phenyl)carbamoyl)bicyclo[3.2.0]heptan-6-yl)carbamoyl)-4′-methoxy-[1,1′-biphenyl]-3-yl)-2-((phenylcarbamoyl)oxy) acetic acid]"
3,823 nM,"COc1ccc(C#CCO)cc1C(=O)N[C@H]1[C@@H]2CCC[C@@H]2[C@H]1C(=O)Nc1ccc(F)c(C(F)(F)F)c1 [Example 2, (1R,5S,6R,7S)—N-(4-fluoro-3-(trifluoromethyl)phenyl)-7-(5-(3-hydroxyprop-1-yn-1-yl)-2-methoxybenzamido) bicyclo[3.2.0]heptane-6-carboxamide]"
4,1190 nM,"COc1ccc(-c2cc(C(=O)O)ccc2F)cc1C(=O)N[C@H]1[C@@H]2CCC[C@@H]2[C@H]1C(=O)Nc1ccc(F)c(C(F)(F)F)c1 [Example 1, 6-fluoro-3′-(((1S,5R,6S,7R)-7-((4-fluoro-3-(trifluoromethyl)phenyl)carbamoyl)bicyclo[3.2.0]heptan-6-yl)carbamoyl)-4′-methoxy-[1,1′-biphenyl]-3-carboxylic acid]"
5,2230 nM,"COc1ccc(C2=NOC(CO)C2)cc1C(=O)NC1C2CCCC2C1C(=O)Nc1ccc(F)c(C(F)(F)F)c1 [Example 5, (1R,5S,6R,7S)-N-(4-fluoro-3-(tri-fluoromethyl)-phenyl)-7-(5-(5-(hydroxymethyl)-4,5-dihydroisox-azol-3-yl)-2-meth-oxybenzamido)-bicyclo[3.2.0] heptane-6-carbox-amide]"
